Experiment [1] has as its system HIT-T15 β-cells. The format is cell-based. The settings on record: for increase of cell survival: serum-free conditions. As for the experimental part: MTT experiments were also performed in hamster HIT-T15 β-cells, to test the survival effect of UAG (1-28) or its fragments UAG (1-14), UAG (1-18), UAG (1-5) and UAG (17-28) in serum deprived medium, either alone or with IFN-γ/TNF-α/IL-1β. As for the experiments performed on INS-1E β-cells, the peptides were tested at increasing concentrations, ranging from 0.1 nM to 100 nM.
The survival effect of UAG (6-13), UAG (8-13), UAG (8-12), UAG (8-11), UAG (9-12) and UAG (9-11) was assessed in cytokine-treated HIT-T15 β-cells.
The protective effects of peptides UAG (8-13) and UAG (8-12) were found similar to those of UAG (1-14) and UAG (1-18) A peptide made of the inverse sequence of UAG (1-14) and named UAG (14-1), was used as negative control for these experiments (FIG. 5A). […] These effects were however lower than those of UAG (6-13) (FIG. 5B).
UAG fragments with alanine (Ala) substitutions at different amino acid positions (6 to 13) were tested with regards to their survival effects in HIT-T15 hamster β-cells. The cells were cultured in serum deprived medium, either alone or with IFN-γ/TNF-α/IL-1β. The peptides were tested at the concentrations of 1 nM to 100 nM. […] Under treatment with cytokines, where cell survival was reduced by ≈18% with respect to serum starved conditions, all Ala substitutions, except those at positions 10 and 11, completely reversed cell death and brought the survival rate to levels that were even higher than those under serum-free conditions, at both 1 nM and 100 nM concentrations. These effects, were similar to those elicited by the original peptide UAG (6-13) (FIG. 11B).
Particularly, the best effect was exerted by Gly 6-UAG (6-13), whereas the lowest was seen using AcSer 6-UAG (6-13), AcSer 6-(D)Pro 7-UAG (6-13) (FIG. 12B).
(§1) Cell culture—Hamster HIT-T15 insulin-secreting β-cells were obtained and cultured as described (Refs. 14, 4). INS-1E rat β-cells were kindly provided by Prof. Claes B. Wollheim (University Medical Center, Geneva, Switzerland) and cultured as described (Refs. 14, 4). Cell culture reagents were from Invitrogen (Milano, Italy). Cytokines were from Biosource (Invitrogen, Italy).
(§2) Cell survival assay—Cell survival was assessed by 3-[4,5-dimethylthiazol-2-yl]-2,5 diphenyltetrazolium bromide (MTT) as described previously (Ref. 4). Cells were seeded on 96-well plates at a density of 5×10^3 cells/well. After treatments, cells were incubated with 1 mg/ml MTT for ≈1 h. The medium was aspirated, and the formazan product solubilized with 100 μl DMSO. Viability was assessed by spectrophotometry at 570 nm absorbance using a 96-well plate reader.

Experiment [2] concerns HIT-T15 β-cells. Nature of the experiment: Apoptosis in cytokine-treated HIT-T15 β-cells. It counts as cell-based, hamster. The settings on record: for cytokine-induced apoptosis: 24 h serum-free medium with IFN-γ/TNF-α/IL-1β, peptides 1, 10, 100 nM. As for the experimental part: HIT-T15 β-cells were cultured for 24 h in serum-free medium, either alone or with IFN-γ/TNF-α/IL-1β. In both cell lines, apoptosis increased under cytokine treatment, with respect to serum starvation alone. […] UAG (14-1), the inverse sequence of UAG (1-14), was used as negative control, whereas UAG (1-28), was used as positive control in each experiment.

The subject of the next experiment is INS-1E β-cells. Nature of the experiment: MTT cell survival assay in INS-1E β-cells. The format is cell-based, rat. The settings on record: peptides 0.1 nM to 100 nM. On the procedure: The peptides were tested at increasing concentrations, ranging from 0.1 nM to 100 nM.
as §1, §2

The next experiment has as its system human pancreatic islets. Nature of the experiment: MTT cell survival assay in human pancreatic islets. The conditions noted are these: 1 nM to 100 nM. It counts as cell-based. On the procedure: The survival effect of UAG (1-14), UAG (1-18), UAG (1-5) and UAG (17-28), with respect to that of full length UAG (1-28), was assessed in human pancreatic islets by MTT. The peptides were tested in islet cells cultured in serum deprived medium, either alone or with IFN-γ/TNF-α/IL-1β (5 ng/ml each).
Human islet isolation—Human islets were obtained from pancreases of multiorgan donors as described (Ref. 4). Islet preparations with purity >70%, not suitable for transplantation, were provided by European Consortium for Islet Transplantation (ECIT) “Islets for Research Distribution Program,” Transplant Unit, Scientific Institute San Raffaele, Vita-Salute University, Milan. Islets (10,000) were cultured in CMRL (Invitrogen) with 10% FBS.
as §2
On the technique in general: Tetrazolium dyes change colour on reduction, which living cells bring about.

Experiment [3] concerns UAG receptor on HIT-T15 pancreatic β-cells. Put plainly: [125I-Tyr4]-UAG competition binding, HIT-T15 membranes. The settings on record: for binding to the UAG receptor: HIT-T15 cells. Set-up: species or system hamster. As for the experimental part: (§3) The ability of the fragment UAG (6-13) to compete in a concentration-dependent manner with [^125I-Tyr^4]-UAG for HIT-T15 (FIG. 10A) and INS-1E (FIG. 10B) binding sites was assayed. As shown in FIGS. 10A and 10B, unlabelled UAG (1-28) and UAG (6-13) competed with a similar efficacy and in a concentration-dependent fashion with [^125I-Tyr^4]-UAG for such binding sites in both cell lines.
(§4) Binding assay—Membranes from hamster HIT-T15 and rat INS-1E to pancreatic β-cells were prepared and assayed for the presence of [^125I-Tyr^4]-UAG binding. The ability of UAG fragments to compete with the radioligand for such binding sites has been evaluated as previously described (Ref. 4). Data are presented as mean±S.E.M. of three independent experiments.

In another experiment the test system is ob/ob mice. Put plainly: ob/ob mice, 4-week intraperitoneal pump infusion. It counts as in vivo, mouse. On the procedure: Baseline tail vein plasma samples were collected from free-fed and 16 h fasted ob/ob mice 7 and 6 days before pump implantation into K2EDTA coated capillary tubes (Microvette CB300 K2E; Sarstedt, Germany). The animals were then separated into three groups with approximately equivalent weight ranges. Ten week old mice were anesthetized, and a filled Alzet 1004 pump was inserted, delivery portal first, into the peritoneal cavity. The musculoperitoneal and skin layers were then closed using interrupted sutures (Vicryl 5.0 FS-2 absorbable suture). Animals received pumps containing either saline, 10 mg/ml UAG, or 3.5 mg/mL UAG (6-13) (n=8 per group). Alzet 1004 pumps deliver […], and infused 30 μg of hUAG/animal/day (˜600 μg/kg/day) and 10 μg of UAG (6-13)/animal/day (˜200 μg/kg/day).
Blood samples (at 0900-1000) were obtained from fed and fasted animals at weeks 2 and 4 via the tail vein into EDTA Microvette tubes. Glucose levels in tail vein blood were measured directly using a glucometer. On the last day of treatment baseline (fasted) blood samples were taken.
For the experimental data illustrated in FIGS. 14A, 14B, 15 and 16, the animals were obtained from Charles River Laboratories (Maastricht, The Netherlands). Animals (B6.V-Lep^ob/J, Charles River Laboratories, Belgian colony) were received in our animal facilities at 8 weeks of age, and acclimatized in individual cages for 2 weeks before treatments began. They were maintained under standard 12:12 h light:dark conditions, 21° C., and were allowed free access to food and water. The animals were also handled daily to accustom them to the method used for blood collection. The peptides were dissolved in sterile, nonpyrogenic, 0.9% saline (Baxter BV, Utrecht, The Netherlands). D-glucose was obtained from Sigma-Aldrich Chemie BV (Zwijndrecht, The Netherlands), and was dissolved at 400 mg/ml in 0.9% saline. Alzet pumps (model 1004) were obtained from Charles River Laboratories (Maastricht, The Netherlands). Pumps were filled with 0.9% saline, UAG or UAG (6-13) solution under sterile conditions, and pre-incubated in 0.9% saline for at least 48 hours at 37° C. to initiate flow. Blood glucose levels were measured directly from tail vein incisions using a Freestyle mini glucometer and test strips (ART05214 Rev.A; Abbot, Amersfoort, The Netherlands). Plasma insulin levels were assayed by Ultra-sensitive mouse insulin ELISA (Cat. #10-1150-10; Mercodia, Sweden).

Experiment [4] deals with Streptozotocin (STZ)-treated animals. Put plainly: Streptozotocin (STZ)-treated neonatal rats, diabetes model. It counts as in vivo, rat. The settings on record: for animal survival rate: day 9 after STZ. An excerpt:
Natural birth occurred 6-7 days later. […] Pups were left with their mothers.
Pancreas removal and treatment—After excision, pancreases were removed and weighed.

Experiment [5] concerns UAG receptor on INS-1E pancreatic β-cells. Nature of the experiment: [125I-Tyr4]-UAG competition binding, INS-1E membranes. The conditions noted are these: for binding to the UAG receptor: INS-1E cells. Also noted: species or system rat. As for the experimental part:
as §3, §4

Setting [6] is: serum deprived medium with IFN-γ/TNF-α/IL-1β.
Where [7] appears, read: serum deprived medium with IFN-γ/TNF-α/IL-1β (5 ng/ml each).

Read-outs that look alike come from different tables or passages of the source. Non-standard residues stand in square brackets, D forms with d. No end group written: not given here.

For the substance “Ac-Ser-Pro-Glu-His-Gln-Arg-Val-Gln-NH2 (Ac-SPEHQRVQ-NH2; listed as Homo sapiens) [AcSer 6-UAG (6-13)]”, in the experiment on HIT-T15 β-cells [1] (setting [6]), the “cell survival (MTT)” value is recorded as “lowest”.

For the substance “Ac-Ser-pro-Glu-His-Gln-Arg-Val-Gln-NH2 (Ac-S[dP]EHQRVQ-NH2; listed as Homo sapiens) [AcSer 6-(D)Pro 7-UAG (6-13)]”, the “cell survival (MTT)” value with HIT-T15 β-cells [1] (setting [6]) is “lowest”.

As to EHQRVQ [UAG (8-13)], in the experiment on HIT-T15 β-cells [2], the cytokine-induced apoptosis result was “significantly inhibited apoptosis at 10 and 100 nM”.

On to ESKKPPAKLQPR [UAG (17-28)], for which the “cell survival (MTT)” value is “reduced effect” in the experiment with INS-1E β-cells (setting [6]); “reduced, although significant, survival action” with INS-1E β-cells (serum-free medium); “no significant effect” in the experiment on HIT-T15 β-cells [1] (serum deprived medium alone); “no significant effect” in the experiment on HIT-T15 β-cells [1] (setting [6]); “significantly increased survival of islet cells” with human pancreatic islets (serum deprived medium alone); “had no effect” with human pancreatic islets (setting [7]).

“Glu-His-Gln-Arg (EHQR; listed as Homo sapiens) [UAG (8-11)]”: in the experiment on HIT-T15 β-cells [1] (setting [6]), the “cell survival (MTT)” value is listed as “significant survival effect only at 100 nM”.

On to “Glu-His-Gln-Arg-Val (EHQRV; printed: Glu-His-Gln-Arg-Val) [UAG (8-12)]”, for which the cytokine-induced apoptosis entry in the experiment on HIT-T15 β-cells [2] was “some protective effect only at 100 nM”.

Regarding “Gly-Pro-Glu-His-Gln-Arg-Val-Gln-NH2 (GPEHQRVQ-NH2; listed as Homo sapiens) [Gly 6-UAG (6-13)]”, the “cell survival (MTT)” value with HIT-T15 β-cells [1] (setting [6]) is “best effect”.

As for “Gly-Ser-Ser-Phe-Leu (GSSFL; listed as Homo sapiens) [UAG (1-5)]”, the “cell survival (MTT)” value in the experiment on INS-1E β-cells (setting [6]) is given as “reduced effect”; in the experiment on INS-1E β-cells (serum-free medium), “reduced, although significant, survival action”; in the experiment with HIT-T15 β-cells [1] (setting [6]), “slightly increased cell survival”; in the experiment with human pancreatic islets (serum deprived medium alone) it was “little, although significant survival action at 10 nM”; with human pancreatic islets (setting [7]) it was “no cell protection”.

Turning to His-Gln-Arg [UAG (9-11)], the “cell survival (MTT)” value in the experiment on HIT-T15 β-cells [1] (setting [6]) was “no significant effect at both concentrations tested”.

For “His-Gln-Arg-Val (HQRV; listed as Homo sapiens) [UAG (9-12)]”, in the experiment with HIT-T15 β-cells [1] (setting [6]), the “cell survival (MTT)” value is on record as “significantly increased cell survival at both the concentrations tested”.

By IC50 is commonly meant the point on the concentration scale where inhibition reaches its midpoint. High values mean weaker potency, low ones greater potency. Take “SPEHQRVQ [UAG (6-13), Ser-Pro-Glu-His-Gln-Arg-val-Gln]”: the “binding to the UAG receptor” value in experiment [3] and in experiment [5] was “highest binding activity” throughout. Also, the IC50 in experiment [3] (HIT-T15 membranes, mean±S.E.M. of three experiments) was found to be 3.8 ± 0.3 nM; in experiment [5] (INS-1E membranes, mean±S.E.M. of three experiments) it was 2.4 ± 0.3 nM. For the same substance, the “increase of cell survival” value with HIT-T15 β-cells [1] (peptide 1 nM) is “≈ 18%”; in the experiment with HIT-T15 β-cells [1] (peptide 100 nM), “≈ 30%”. In addition, the “suppressive effect on plasma glucose levels in fed animals” value in the experiment with ob/ob mice (fed animals, relative to saline controls) is 30-40%. Also, the “fed plasma glucose levels” value in the experiment on ob/ob mice (fed animals, relative to saline controls, not statistically significant (RM-ANOVA)) is “consistent suppressive effect”. Besides, in the experiment with ob/ob mice (over the period of treatment), the gonadal fat weight result is reported as “did not cause an increase in gonadal fat weight”. Further, the “decrease of gonadal fat pad weight relative to saline treated controls” value with ob/ob mice (period of treatment, trend p<0.06) is recorded as “approximately 7%”. Besides, in the experiment with HIT-T15 β-cells [2], the cytokine-induced apoptosis result is given as “significantly reduced cytokine-induced apoptosis”. Besides, in the experiment on HIT-T15 β-cells [2] (with respect to cytokine condition, data not shown), the “cell number and morphology” value is “increased the number of cells, induced cell enlargement and small islets formation”. Further, the animal survival rate entry is listed as “≈ 71%” in experiment [4] (30 nmol/l) and 89% in experiment [4] (100 nmol/l). Moreover, the “reduction of plasma glucose vs. STZ group” value is reported as 31% in experiment [4] (day 70, 30 nmol/l) and 14% in experiment [4] (day 70, 100 nmol/l). For the same substance, the plasma insulin levels entry in experiment [4] (day 70, STZ-treated rats, UAG (6-13) at both concentrations) is on record as “increasing insulin levels”.

In the case of “UAG (1-13): UAG fragment named only in b93 as binding to the UAG receptor; no sequence listed (GSSFLSPEHQRVQ)”, the “binding to the UAG receptor” value in experiment [3] was “recognized and bound to the UAG receptor”; in experiment [5], “recognized and bound to the UAG receptor”.

Source of the values: US20100168033A1, “UNACYLATED GHRELIN AS THERAPEUTIC AGENT IN THE TREATMENT OF METABOLIC DISORDERS” (ALIZE PHARMA SAS, priority 2007, published 2010).
